Paper PMC6385813, “Macrocyclisation of small peptides enabled by oxetane incorporation” (Chemical Science, 2019)

Assay: head-to-tail lactamisation of free linear peptides (H-/-OH), DEPBT (2 equiv), iPr2EtN (2 equiv)
Conditions: DMF, 1.0 mM, 25.0 °C

CC(C)C[C@@H]1NC(=O)[C@H](Cc2ccc(O)cc2)NC(=O)[C@H](C)NC(C)(C)CNC(=O)[C@H](C)NC1=O [H-Leu-Ala-NHCH2C(Me)2-Ala-Tyr-OH]
ring closure, isolated yield (from CC(C)C[C@H](N)C(=O)N[C@@H](C)C(=O)NCC(C)(C)N[C@@H](C)C(=O)N[C@@H](Cc1ccc(O)cc1)C(=O)O, 15-membered ring, 24.0 h): 32%

CC(C)C[C@@H]1NC(=O)[C@H](Cc2ccc(O)cc2)NC(=O)[C@H](C)NC2(CNC(=O)[C@H](C)NC1=O)COC2 [H-GOx-Ala-Tyr-Leu-Ala-OH]
ring closure, isolated yield (from CC(C)C[C@H](NC(=O)[C@H](Cc1ccc(O)cc1)NC(=O)[C@H](C)NC1(CN)COC1)C(=O)N[C@@H](C)C(=O)O, 15-membered ring, 24.0 h): 43%

CC(C)C[C@@H]1NC(=O)[C@H](Cc2ccc(O)cc2)NC(=O)[C@@H]2CCCN2C(=O)CNC(=O)[C@H](C)NC1=O [H-Leu-Ala-Gly-Pro-Tyr-OH]
ring closure, isolated yield (from CC(C)C[C@H](N)C(=O)N[C@@H](C)C(=O)NCC(=O)N1CCC[C@H]1C(=O)N[C@@H](Cc1ccc(O)cc1)C(=O)O, 15-membered ring): 13%

CC(C)C[C@@H]1NC(=O)[C@H](Cc2ccccc2)NC(=O)[C@H]([C@@H](C)OC(C)(C)C)NC2(CNC(=O)[C@H](C(C)C)NC(=O)[C@H](Cc3ccc(OC(C)(C)C)cc3)NC1=O)COC2 [H-Leu-Tyr(tBu)-Val-GOx-Thr(tBu)-Phe-OH]
ring closure, isolated yield (from CC(C)C[C@H](N)C(=O)N[C@@H](Cc1ccc(OC(C)(C)C)cc1)C(=O)N[C@H](C(=O)NCC1(N[C@H](C(=O)N[C@@H](Cc2ccccc2)C(=O)O)[C@@H](C)OC(C)(C)C)COC1)C(C)C, 18-membered ring, 48.0 h): 58%

CC(C)C[C@@H]1NC(=O)[C@H]2CCCN2C(=O)CNC2(CNC1=O)COC2 [H-D-Pro-Leu-GOx-Gly-OH]
ring closure, isolated yield (from CC(C)C[C@H](NC(=O)[C@H]1CCCN1)C(=O)NCC1(NCC(=O)O)COC1, 12-membered ring, 48.0 h): 54%

CC(C)C[C@@H]1NC(=O)[C@H](Cc2ccc(O)cc2)NC(=O)[C@H](C)NC2(CNC(=O)[C@H](C)NC1=O)COC2 [H-Tyr-Leu-Ala-GOx-Ala-OH]
ring closure, isolated yield (from CC(C)C[C@H](NC(=O)[C@@H](N)Cc1ccc(O)cc1)C(=O)N[C@@H](C)C(=O)NCC1(N[C@@H](C)C(=O)O)COC1, 15-membered ring, 24.0 h): 31%

CC(C)C[C@@H]1NC(=O)[C@H](Cc2ccc(O)cc2)NC(=O)[C@@H]2CCCN2C2(CNC(=O)[C@H](C)NC1=O)COC2 [H-Leu-Ala-GOx-Pro-Tyr-OH]
ring closure, isolated yield (from CC(C)C[C@H](N)C(=O)N[C@@H](C)C(=O)NCC1(N2CCC[C@H]2C(=O)N[C@@H](Cc2ccc(O)cc2)C(=O)O)COC1, 15-membered ring, 48.0 h): 48%

CC(C)C[C@@H]1NC(=O)[C@H](CC(=O)OC(C)(C)C)NC(=O)CNC2(CNC1=O)COC2 [H-Asp(tBu)-Leu-GOx-Gly-OH]
ring closure, isolated yield (from CC(C)C[C@H](NC(=O)[C@@H](N)CC(=O)OC(C)(C)C)C(=O)NCC1(NCC(=O)O)COC1, 12-membered ring, 48.0 h): 49%

CC(C)C[C@@H]1NC(=O)[C@H](Cc2ccc(O)cc2)NC(=O)[C@H](C)NC(=O)C(C)(C)NC(=O)[C@H](C)NC1=O [H-Leu-Ala-Aib-Ala-Tyr-OH]
ring closure, isolated yield (from CC(C)C[C@H](N)C(=O)N[C@@H](C)C(=O)NC(C)(C)C(=O)N[C@@H](C)C(=O)N[C@@H](Cc1ccc(O)cc1)C(=O)O, 15-membered ring, 24.0 h): 29%

CC(C)C[C@@H]1NC(=O)[C@H](Cc2ccc(O)cc2)NC(=O)[C@H](C)NC(=O)CCNC(=O)[C@H](C)NC1=O [H-Leu-Ala-βAla-Ala-Tyr-OH]
ring closure, isolated yield (from CC(C)C[C@H](N)C(=O)N[C@@H](C)C(=O)NCCC(=O)N[C@@H](C)C(=O)N[C@@H](Cc1ccc(O)cc1)C(=O)O, 16-membered ring, 24.0 h): 39%

CC(C)C[C@@H]1NC(=O)[C@H](Cc2ccc(O)cc2)NC(=O)[C@H](C)NC2(CNC(=O)[C@H](C)NC1=O)COC2 [H-Ala-GOx-Ala-Tyr-Leu-OH]
ring closure, isolated yield (from CC(C)C[C@H](NC(=O)[C@H](Cc1ccc(O)cc1)NC(=O)[C@H](C)NC1(CNC(=O)[C@H](C)N)COC1)C(=O)O, 15-membered ring, 24.0 h): 57%

CC(C)C[C@@H]1NC(=O)[C@H](Cc2ccc(O)cc2)NC(=O)[C@H](C)NCCNC(=O)[C@H](C)NC1=O [H-Leu-Ala-NHCH2CH2-Ala-Tyr-OH]
ring closure, isolated yield (from CC(C)C[C@H](N)C(=O)N[C@@H](C)C(=O)NCCN[C@@H](C)C(=O)N[C@@H](Cc1ccc(O)cc1)C(=O)O, 15-membered ring, 24.0 h): 28%

CC(C)C[C@@H]1NC(=O)[C@H]2CCCN2C(=O)CNC(=O)CNC1=O [H-D-Pro-Leu-Gly-Gly-OH]
ring closure, isolated yield (from CC(C)C[C@H](NC(=O)[C@H]1CCCN1)C(=O)NCC(=O)NCC(=O)O, 12-membered ring, 48.0 h): 0%

CC(C)C[C@@H]1NC(=O)[C@H](Cc2c[nH]c3ccccc23)NC(=O)CNC(=O)[C@H](C)NC1=O [H-Trp-Leu-Ala-Gly-OH]
ring closure, isolated yield (from CC(C)C[C@H](NC(=O)[C@@H](N)Cc1c[nH]c2ccccc12)C(=O)N[C@@H](C)C(=O)NCC(=O)O, 12-membered ring, 48.0 h): 21%

CC(C)C[C@@H]1NC(=O)[C@H](Cc2ccc(O)cc2)NC(=O)[C@H](C)NC(=O)CNC(=O)[C@H](C)NC1=O [H-Gly-Ala-Tyr-Leu-Ala-OH]
ring closure, isolated yield (from CC(C)C[C@H](NC(=O)[C@H](Cc1ccc(O)cc1)NC(=O)[C@H](C)NC(=O)CN)C(=O)N[C@@H](C)C(=O)O, 15-membered ring): 30%

CC(C)C[C@@H]1NC(=O)[C@H](Cc2ccc(O)cc2)NC(=O)[C@H](C)NC(=O)CNC(=O)[C@H](C)NC1=O [H-Tyr-Leu-Ala-Gly-Ala-OH]
ring closure, isolated yield (from CC(C)C[C@H](NC(=O)[C@@H](N)Cc1ccc(O)cc1)C(=O)N[C@@H](C)C(=O)NCC(=O)N[C@@H](C)C(=O)O, 15-membered ring): 24%

CC(C)C[C@@H]1NC(=O)[C@H](Cc2ccc(O)cc2)NC(=O)[C@H](C)NC2(CNC(=O)[C@H](C)NC1=O)COC2 [H-Leu-Ala-GOx-Ala-Tyr-OH]
ring closure, isolated yield (from CC(C)C[C@H](N)C(=O)N[C@@H](C)C(=O)NCC1(N[C@@H](C)C(=O)N[C@@H](Cc2ccc(O)cc2)C(=O)O)COC1, 15-membered ring, 24.0 h): 51%

CC(C)C[C@@H]1NC(=O)[C@H](Cc2ccc(O)cc2)NC(=O)[C@H](C)NC(=O)CN(C)C(=O)[C@H](C)NC1=O [H-Leu-Ala-Sar-Ala-Tyr-OH]
ring closure, isolated yield (from CC(C)C[C@H](N)C(=O)N[C@@H](C)C(=O)N(C)CC(=O)N[C@@H](C)C(=O)N[C@@H](Cc1ccc(O)cc1)C(=O)O, 15-membered ring, 24.0 h): 36%

CC(C)C[C@@H]1NC(=O)[C@H](Cc2c[nH]c3ccccc23)NC(=O)CNC2(CNC1=O)COC2 [H-Trp-Leu-GOx-Gly-OH]
ring closure, isolated yield (from CC(C)C[C@H](NC(=O)[C@@H](N)Cc1c[nH]c2ccccc12)C(=O)NCC1(NCC(=O)O)COC1, 12-membered ring, 48.0 h): 65%

CC(C)C[C@@H]1NC(=O)[C@H](Cc2c[nH]c3ccccc23)NC(=O)CNC(=O)CNC1=O [H-Trp-Leu-Gly-Gly-OH]
ring closure, isolated yield (from CC(C)C[C@H](NC(=O)[C@@H](N)Cc1c[nH]c2ccccc12)C(=O)NCC(=O)NCC(=O)O, 12-membered ring, 48.0 h): 15%

CC(C)C[C@@H]1NC(=O)[C@H](CC(=O)OC(C)(C)C)NC(=O)CNC(=O)CNC1=O [H-Asp(tBu)-Leu-Gly-Gly-OH]
ring closure, isolated yield (from CC(C)C[C@H](NC(=O)[C@@H](N)CC(=O)OC(C)(C)C)C(=O)NCC(=O)NCC(=O)O, 12-membered ring, 48.0 h): 14%

CC(C)C[C@@H]1NC(=O)[C@H](Cc2c[nH]c3ccccc23)NC(=O)CNC2(COC2)[C@H](C)NC1=O [H-Trp-Leu-AOx-Gly-OH]
ring closure, isolated yield (from CC(C)C[C@H](NC(=O)[C@@H](N)Cc1c[nH]c2ccccc12)C(=O)N[C@@H](C)C1(NCC(=O)O)COC1, 12-membered ring, 48.0 h): 50%

CC(C)C[C@@H]1NC(=O)[C@H](Cc2ccc(O)cc2)NC(=O)[C@H](C)NC(=O)CNC(=O)[C@H](C)NC1=O [H-Leu-Ala-Gly-Ala-Tyr-OH]
ring closure, isolated yield (from CC(C)C[C@H](N)C(=O)N[C@@H](C)C(=O)NCC(=O)N[C@@H](C)C(=O)N[C@@H](Cc1ccc(O)cc1)C(=O)O, 15-membered ring, 24.0 h): 31%

CC(C)C[C@@H]1NC(=O)[C@H](Cc2ccc(O)cc2)NC(=O)[C@H](C)NC(=O)CNC(=O)[C@H](C)NC1=O [H-Ala-Gly-Ala-Tyr-Leu-OH]
ring closure, isolated yield (from CC(C)C[C@H](NC(=O)[C@H](Cc1ccc(O)cc1)NC(=O)[C@H](C)NC(=O)CNC(=O)[C@H](C)N)C(=O)O, 15-membered ring, 24.0 h): 40%
